Laboratory results reported in US20240317721A1, “PYRAZOLYL DERIVATIVES AS INHIBITORS OF THE KRAS MUTANT PROTEIN” (NOVARTIS AG, priority 2021, published 2024).

target: KRasG12C (M1-K169, biotinylated on the N-terminus) (Homo sapiens (Human), UniProt P01116, G12C); experiment: Covalent competition assay: scintillation proximity assay (SPA) quantifying covalent modification of KRASG12C; assay type: binding; conditions: competition with radiolabeled covalent probe (Compound B/Compound A), 2 hours incubation, 10 nM KRasG12C
Summary of the method: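 Scintillation proximity readout after streptavidin bead capture (30 min) of biotinylated KRasG12C(M1-K169):GDP, 10 nM final, which was covalently labelled over 2 h by 25 nM radio-probe plus 475 nM cold probe unless blocked by compound.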

| SMILES | IC50 [nM] |
| --- | --- |
| C=CC(=O)N1CC2(CC(n3nc(N4CCC(N(C)[C@@H]5CCOC5)CC4(C)C)c(-c4c(Cl)c(C)cc5[nH]ncc45)c3C)C2)C1 (single isomer, unassigned) [Example 84a] | > 5000 |
| C=CC(=O)N1CC2(CC(n3nc(N4CC[C@@H](CN5CCCC56CN(C(C)=O)C6)CC4(C)C)c(-c4c(Cl)c(Cl)cc5[nH]ncc45)c3C)C2)C1 (single isomer, unassigned) [Example 276a] | 3400 |
| CC[C@@]1(C)CN(C[C@@H]2COCCO2)CCN1c1nn(C2CC3(C2)CN(C(=O)/C=C/COC)C3)c(C)c1-c1c(Cl)c(C)cc2[nH]ncc12 (single isomer, unassigned) [Example 120a] | > 5000 |
| C=CC(=O)N1CC2(CC(n3nc(N4CCc5nn(C)c(=O)cc5C4)c(-c4c(Cl)c(C)cc5[nH]ncc45)c3C)C2)C1 (single isomer, unassigned) [Example 40a, 6-(1-(2-acryloyl-2-azaspiro[3.3]heptan-6-yl)-4-(5-chloro-6-methyl-1H-indazol-4-yl)-5-methyl-1H-pyrazol-3-yl)-2-methyl-5,6,7,8-tetrahydropyrido[4,3-c]pyridazin-3(2H)-one] | > 50000 |
| C=CC(=O)N1CC2(CC(n3nc(N4CCC(N5CCOCC5)CC4(C)C)c(-c4c(Cl)c(C)cc5[nH]ncc45)c3C)C2)C1 (single isomer, unassigned) [Example 35b, 1-(6-(4-(5-chloro-6-methyl-1H-indazol-4-yl)-3-(2,2-dimethyl-4-morpholinopiperidin-1-yl)-5-methyl-1H-pyrazol-1-yl)-2-azaspiro[3.3]heptan-2-yl)prop-2-en-1-one] | 1500 |
| C=CC(=O)N1CC2(CC(n3nc(N4Cc5cnn(C)c5C4)c(-c4c(Cl)c(C)cc5[nH]ncc45)c3C)C2)C1 [Example 12, 1-(6-(4-(5-chloro-6-methyl-1H-indazol-4-yl)-5-methyl-3-(1-methyl-4,6-dihydropyrrolo[3,4-c]pyrazol-5(1H)-yl)-1H-pyrazol-1-yl)-2-azaspiro[3.3]heptan-2-yl)prop-2-en-1-one] | 1400 |
| C=CC(=O)N1CC2(CC(n3nc(N4CCN(C(C)=O)C5(CCC5)C4)c(-c4c(Cl)c(C)cc5[nH]ncc45)c3C)C2)C1 (single isomer, unassigned) [Example 20b, 1-(6-(3-(5-acetyl-5,8-diazaspiro[3.5]nonan-8-yl)-4-(5-chloro-6-methyl-1H-indazol-4-yl)-5-methyl-1H-pyrazol-1-yl)-2-azaspiro[3.3]heptan-2-yl)prop-2-en-1-one] | 38300 |
| C=CC(=O)N1CC2(CC(n3nc(N4CCN(C5CCOCC5)CC45CCC5)c(-c4c(Cl)c(Cl)cc5[nH]ncc45)c3C)C2)C1 (single isomer, unassigned) [Example 145a, 1-(6-(4-(5,6-dichloro-1H-indazol-4-yl)-5-methyl-3-(8-(tetrahydro-2H-pyran-4-yl)-5,8-diazaspiro[3.5]nonan-5-yl)-1H-pyrazol-1-yl)-2-azaspiro[3.3]heptan-2-yl)prop-2-en-1-one] | 4300 |
| C=CC(=O)N1CC2(CC(n3nc(N4CCC(N5C6CCC5COC6)CC4(C)C)c(-c4c(Cl)c(C)cc5[nH]ncc45)c3C)C2)C1 [Example 74a, 1-(6-(3-(4-((1R,5S)-3-oxa-8-azabicyclo[3.2.1]octan-8-yl)-2,2-dimethylpiperidin-1-yl)-4-(5-chloro-6-methyl-1H-indazol-4-yl)-5-methyl-1H-pyrazol-1-yl)-2-azaspiro[3.3]heptan-2-yl)prop-2-en-1-one] | > 5000 |
| C=CC(=O)N1CC2(CC(n3nc(N4CC[C@@H](CN5C6CCC5CN(C(C)=O)C6)CC4(C)C)c(-c4c(Cl)c(Cl)cc5[nH]ncc45)c3C)C2)C1 (single isomer, unassigned) [Example 318b] | 7 |
| C=CC(=O)N1CC2(CC(n3nc(N4CCC(N(CCOC)CCOC)CC45CCC5)c(-c4c(Cl)c(Cl)cc5[nH]ncc45)c3C)C2)C1 (single isomer, unassigned) [Example 80a, 1-(6-(3-(8-(bis(2-methoxyethyl)amino)-5-azaspiro[3.5]nonan-5-yl)-4-(5,6-dichloro-1H-indazol-4-yl)-5-methyl-1H-pyrazol-1-yl)-2-azaspiro[3.3]heptan-2-yl)prop-2-en-1-one] | > 5000 |
| C=CC(=O)N1CC2(CC(n3nc(N4CCC(O)CC4(C)C)c(-c4c(Cl)c(C)cc5[nH]ncc45)c3C)C2)C1 (single isomer, unassigned) [Example 29a, 1-(6-(4-(5-chloro-6-methyl-1H-indazol-4-yl)-3-(4-hydroxy-2,2-dimethylpiperidin-1-yl)-5-methyl-1H-pyrazol-1-yl)-2-azaspiro[3.3]heptan-2-yl)prop-2-en-1-one] | > 5000 |
| CC#CC(=O)N1CC2(CC(n3nc(N4CCN(C5COC5)CC45CCC5)c(-c4c(Cl)c(C)cc5[nH]ncc45)c3C)C2)C1 (single isomer, unassigned) [Example 78b, 1-(6-(4-(5-chloro-6-methyl-1H-indazol-4-yl)-5-methyl-3-(8-(oxetan-3-yl)-5,8-diazaspiro[3.5]nonan-5-yl)-1H-pyrazol-1-yl)-2-azaspiro[3.3]heptan-2-yl)but-2-yn-1-one] | > 5000 |
| C=CC(=O)N1CC2(CC(n3nc(N4CCC5C(CC(=O)N5C)C4)c(-c4c(Cl)c(C)cc5[nH]ncc45)c3C)C2)C1 (single isomer, unassigned) [Example 39a, 5-(1-(2-acryloyl-2-azaspiro[3.3]heptan-6-yl)-4-(5-chloro-6-methyl-1H-indazol-4-yl)-5-methyl-1H-pyrazol-3-yl)-1-methyloctahydro-2H-pyrrolo[3,2-c]pyridin-2-one] | 42100 |
| C=CC(=O)N1CC2(CC(n3nc(N4CCN(C5COC5)C5COCC54)c(-c4c(Cl)c(C)cc5[nH]ncc45)c3C)C2)C1 (stereo not drawn) [Example 136b, 1-(6-(4-(5-chloro-6-methyl-1H-indazol-4-yl)-5-methyl-3-((4aS*,7aS*)-4-(oxetan-3-yl)hexahydrofuro[3,4-b]pyrazin-1(2H)-yl)-1H-pyrazol-1-yl)-2-azaspiro[3.3]heptan-2-yl)prop-2-en-1-one] | > 5000 |
| C=CC(=O)N1CC2(CC(n3nc(N4CCN(C5COC5)CC45CCC5)c(-c4c(C)c(Cl)cc5[nH]ncc45)c3C)C2)C1 (single isomer, unassigned) [Example 79a, 1-(6-(4-(6-chloro-5-methyl-1H-indazol-4-yl)-5-methyl-3-(8-(oxetan-3-yl)-5,8-diazaspiro[3.5]nonan-5-yl)-1H-pyrazol-1-yl)-2-azaspiro[3.3]heptan-2-yl)prop-2-en-1-one] | > 5000 |

Further molecules by falling IC50, results first:

| IC50 [nM] | SMILES |
| --- | --- |
| 633 | C=CC(=O)N1CC2(CC(n3nc(N4CCc5nn(C)c(=O)cc5C4)c(-c4c(Cl)c(C)cc5[nH]ncc45)c3C)C2)C1 (single isomer, unassigned) [Example 40b, 6-(1-(2-acryloyl-2-azaspiro[3.3]heptan-6-yl)-4-(5-chloro-6-methyl-1H-indazol-4-yl)-5-methyl-1H-pyrazol-3-yl)-2-methyl-5,6,7,8-tetrahydropyrido[4,3-c]pyridazin-3(2H)-one] |
| 576 | C=CC(=O)N1CC2(CC(n3nc(N4CC5(CCOC5)C4)c(-c4c(Cl)c(Cl)cc5[nH]ncc45)c3C)C2)C1 (single isomer, unassigned) [Example 108b, 1-(6-(4-(5,6-dichloro-1H-indazol-4-yl)-5-methyl-3-(6-oxa-2-azaspiro[3.4]octan-2-yl)-1H-pyrazol-1-yl)-2-azaspiro[3.3]heptan-2-yl)prop-2-en-1-one] |
| 76 | C=CC(=O)N1CC2(CC(n3nc(N4CCN(C(C)C)CC45CCC5)c(-c4c(Cl)c(C)cc5[nH]ncc45)c3C)C2)C1 (single isomer, unassigned) [Example 131b, 1-(6-(4-(5-chloro-6-methyl-1H-indazol-4-yl)-3-(8-isopropyl-5,8-diazaspiro[3.5]nonan-5-yl)-5-methyl-1H-pyrazol-1-yl)-2-azaspiro[3.3]heptan-2-yl)prop-2-en-1-one] |
| 60 | C=CC(=O)N1CC2(CC(n3nc(N4CCN(CCOC)CC4(C)C)c(-c4c(Cl)c(C)cc5[nH]ncc45)c3C)C2)C1 (single isomer, unassigned) [Example 170b, 1-(6-(4-(5-chloro-6-methyl-1H-indazol-4-yl)-3-(4-(2-methoxyethyl)-2,2-dimethylpiperazin-1-yl)-5-methyl-1H-pyrazol-1-yl)-2-azaspiro[3.3]heptan-2-yl)prop-2-en-1-one] |
| 31 | C=CC(=O)N1CC2(CC(n3nc(N4CCN(CC(C)(C)O)CC45CCC5)c(-c4c(Cl)c(F)cc5[nH]ncc45)c3C)C2)C1 (single isomer, unassigned) [Example 167b, 1-(6-(4-(5-chloro-6-fluoro-1H-indazol-4-yl)-3-(8-(2-hydroxy-2-methylpropyl)-5,8-diazaspiro[3.5]nonan-5-yl)-5-methyl-1H-pyrazol-1-yl)-2-azaspiro[3.3]heptan-2-yl)prop-2-en-1-one] |
| 11 | C=CC(=O)N1CC2(CC(n3nc(N4CCC(CN5C[C@@H]6OCCO[C@@H]6C5)CC4(C)C)c(-c4c(Cl)c(Cl)cc5[nH]ncc45)c3C)C2)C1 (single isomer, unassigned) [Example 231b] |
| 8 | C=CC(=O)N1CC2(CC(n3nc(N4CCN(C5COC5)C[C@]4(C)CCOC)c(-c4c(Cl)c(C)cc5[nH]ncc45)c3C)C2)C1 (single isomer, unassigned) [Example 86b] |
| 7 | C=CC(=O)N1CC2(CC(n3nc(N4CC[C@@H](CN5C[C@H](O)C[C@H]5COC)CC4(C)C)c(-c4c(Cl)c(Cl)cc5[nH]ncc45)c3C)C2)C1 (single isomer, unassigned) [Example 286b] |
| 6 | C=CC(=O)N1CC2(CC(n3nc(N4CC[C@@H](CN5CCP(C)(=O)CC5)CC4(C)C)c(-c4c(Cl)c(Cl)cc5[nH]ncc45)c3C)C2)C1 (single isomer, unassigned) [Example 269b] |
| 6 | C=CC(=O)N1CC2(CC(n3nc(N4CC[C@@H](CN5CCN6CCOC[C@@H]6C5)CC4(C)C)c(-c4c(Cl)c(Cl)cc5[nH]ncc45)c3C)C2)C1 (single isomer, unassigned) [Example 279b] |
